# Target: human recombinant H-PGDS (Homo sapiens, UniProt O60760)
# Test: Fluoresecence Intensity h-PGDSTBA Enzyme Assay
# Conditions: IC50, 5.0 μM PGH2, 2.5 mM L-Glutathione, 10 min preincubation, 4-parameter fit, highest inhibitor concentration typically 1 μM
# Chain of human recombinant H-PGDS (O60760 whole entry): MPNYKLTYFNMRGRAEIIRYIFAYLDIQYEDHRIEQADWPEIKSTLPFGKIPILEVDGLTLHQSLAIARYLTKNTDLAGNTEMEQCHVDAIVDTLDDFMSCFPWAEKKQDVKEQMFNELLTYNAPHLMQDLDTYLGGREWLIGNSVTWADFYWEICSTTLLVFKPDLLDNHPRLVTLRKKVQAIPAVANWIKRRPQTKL
row,Structure (SMILES),IC50 [nM]
1,"O=C(NC1CCN(c2ncc3c(n2)CCOC3)C1)c1cnc(-c2cccc(F)c2)nc1 (stereo not drawn) [Example 81, N-[1-(7,8-Dihydro-5H-pyrano[4,3-d]pyrimidin-2-yl)pyrrolidin-3-yl]-2-(3-fluorophenyl)pyrimidine-5-carboxamide]",0.219
2,"NC(=O)c1cccnc1N1C[C@H](O)[C@H](NC(=O)c2cnc(-c3cccc(F)c3)nc2)C1 (relative stereo) [Example 99, Cis-N-{1-[3-(Aminocarbonyl)pyridin-2-yl]-4-hydroxypyrrolidin-3-yl}-2-(3-fluorophenyl)pyrimidine-5-carboxamide]",2.65
3,"COc1cccc(OCC(c2ccccc2)N2CCC(NC(=O)c3cnc(-c4cccc(F)c4)nc3)CC2)c1 (stereo not drawn) [Example 39, 2-(3-Fluorophenyl)-N-{1-[2-(3-methoxyphenoxy)-1-phenylethyl]piperidin-4-yl}pyrimidine-5-carboxamide]",4.44
4,"O=C(NC1CCN(C(COc2c(F)cccc2Cl)c2ccccc2)CC1)c1cnc(-c2cccc(F)c2)nc1 (stereo not drawn) [Example 29, N-{1-[2-(2-Chloro-6-fluorophenoxy)-1-phenylethyl]piperidin-4-yl}-2-(3-fluorophenyl)pyrimidine-5-carboxamide]",11.4
5,"Cc1cc(F)ccc1OCC(c1ccccc1)N1CCC(NC(=O)c2cnc(-c3cccc(F)c3)nc2)CC1 (stereo not drawn) [Example 57, N-{1-[2-(4-Fluoro-2-methylphenoxy)-1-phenylethyl]piperidin-4-yl}-2-(3-fluorophenyl)pyrimidine-5-carboxamide]",11.4
6,"O=C(N[C@@H]1CN(c2ncccn2)C[C@@H]1O)c1cnc(-c2cccc(F)c2)nc1 (relative stereo) [Example 98, Cis-2-(3-Fluorophenyl)-N-[4-hydroxy-1-pyrimidin-2-ylpyrrolidin-3-yl]pyrimidine-5-carboxamide]",1.82
7,"O=C(NC1CCN(c2ncc3c(n2)CCOC3)C1)c1cnc(-c2cccc(F)c2)nc1 (single isomer, unassigned) [Example 81a, N-(1-(7,8-Dihydro-5H-pyrano[4,3-d]pyrimidin-2-yl)pyrrolidin-3-yl)-2-(3-fluorophenyl)pyrimidine-5-carboxamide]",0.27
8,"COc1cccc(OC)c1CN1CCC(NC(=O)c2cnc(-c3ccccc3)nc2N)CC1 [Example 17, 4-Amino-N-[1-(2,6-dimethoxybenzyl)piperidin-4-yl]-2-phenylpyrimidine-5-carboxamide]",19.3
9,"O=C(NC1CCN(CC2CC2)CC1)c1cnc(-c2cccc(F)c2)nc1 [Example 35, N-[1-(Cyclopropylmethyl)piperidin-4-yl]-2-(3-fluorophenyl)pyrimidine-5-carboxamide]",0.62
10,"COC(=O)c1cccc(-c2ncc(C(=O)NC3CCN(CC(F)(F)F)CC3)cn2)c1 [Example 125, Methyl 3-[5-({[1-(2,2,2-trifluoroethyl)piperidin-4-yl]amino}carbonyl)pyrimidin-2-yl]benzoate]",270
11,"CN1CCc2nc(N3CC[C@@H](NC(=O)c4cnc(-c5cccc(F)c5)nc4)C3)ncc2C1 [Example 78a, 2-(3-Fluorophenyl)-N-[(3R)-1-(6-methyl-5,6,7,8-tetrahydropyrido[4,3-d]pyrimidin-2-yl)pyrrolidin-3-yl]pyrimidine-5-carboxamide]",13
12,"O=C(NC1CCN(CC(F)(F)F)CC1)c1cnc(-c2ccccc2CO)nc1 [Example 113, 2-[2-(Hydroxymethyl)phenyl]-N-[1-(2,2,2-trifluoroethyl)piperidin-4-yl]pyrimidine-5-carboxamide]",1010
13,"CC(C)(C)OC(=O)N1C[C@H](NC(=O)c2cnc(-c3cccc(F)c3)nc2)[C@@H](F)C1 [Example 92, tert-Butyl (3S,4S)-3-fluoro-4-({[2-(3-fluorophenyl)pyrimidin-5-yl]carbonyl}amino)pyrrolidine-1-carboxylate]",2.87
14,"CCOC(=O)N1CCC(NC(=O)c2cnc(-c3cccc(F)c3)nc2)C1 (single isomer, unassigned) [Example 82b, Ethyl 3-(2-(3-fluorophenyl)pyrimidine-5-carboxamido)pyrrolidine-1-carboxylate]",0.58
15,"O=C(NC1CCN(Cc2ccccn2)CC1)c1cnc(-c2ccccc2)nc1O [Example 21, 4-Hydroxy-2-phenyl-N-[1-(pyridin-2-ylmethyl)piperidin-4-yl]pyrimidine-5-carboxamide]",992
16,"O=C(NC1CCN(Cc2cccc(Cl)c2)C1=O)c1cnc(-c2cccc(F)c2)nc1 (stereo not drawn) [Example 83, N-[1-(3-Chlorobenzyl)-2-oxopyrrolidin-3-yl]-2-(3-fluorophenyl)pyrimidine-5-carboxamide]",1.18
17,"Nc1nc(-c2ccccc2)ncc1C(=O)NC1CCN(Cc2ccccn2)CC1 [Example 18, 4-Amino-2-phenyl-N-[1-(pyridin-2-ylmethyl)piperidin-4-yl]pyrimidine-5-carboxamide]",16.4
18,"O=C(NC1CCN(Cc2ccc(C(F)(F)F)c(F)c2)CC1)c1cnc(-c2cccc(F)c2)nc1 [Example 37, 2-(3-Fluorophenyl)-N-{1-[3-fluoro-4-(trifluoromethyl)benzyl]piperidin-4-yl}pyrimidine-5-carboxamide]",7.07
19,"O=C(NC1CCN(C2Cc3ccccc3C2)C1=O)c1cnc(-c2cccc(F)c2)nc1 (stereo not drawn) [Example 90, N-[1-(2,3-Dihydro-1H-inden-2-yl)-2-oxopyrrolidin-3-yl]-2-(3-fluorophenyl)pyrimidine-5-carboxamide]",0.808
20,"COc1ccc(OCC(c2ccccc2)N2CCC(NC(=O)c3cnc(-c4cccc(F)c4)nc3)CC2)cc1 (stereo not drawn) [Example 58, 2-(3-Fluorophenyl)-N-{1-[2-(4-methoxyphenoxy)-1-phenylethyl]piperidin-4-yl}pyrimidine-5-carboxamide]",2.08
21,"Cc1nc(-c2ccccc2)ncc1C(=O)NC1CCN(C)CC1 [Example 4, 4-Methyl-N-(1-methylpiperid-4-yl)-2-phenylpyrimidine-5-carboxamide]",302

# Source: patent US8067589B2, “Heterocyclic compounds useful in treating diseases and conditions” (Pfizer Inc, priority 2007, dated 2011)
